Patent publication US20110028566A1, “COMPOSITIONS AND PRODUCTS CONTAINING CYCLOALIPHATIC DIOL ANTIMICROBIAL AGENTS AND METHODS OF USING THE COMPOSITIONS AND PRODUCTS” (EASTMAN CHEMICAL COMPANY, priority 2009, published 2011)
Where “and” joins values, the source holds several entries; their conditions need not be identical. Identical values can stand only once. Values belong to the compound of their own block, whether it stands above or below them.

Experiments:
Assay type in all cases: cell-based
[1] = system: Corynebacterium xerosis ATCC #373; assay: Synergy testing in brain heart infusion media, 96-well plates; conditions: for % EHG / SI: CHDM with EHG; for % EHG: relative to EHG alone; for QB/b (EHG): inhibitory concentration of EHG alone or in combination with CHDM, plate EX194-195-EHG-Syn1; for SI: synergy index
Description: (§1) MICs were determined using a high-throughput microplate method. Individual antimicrobial agents were added to TSB (pH 7.3) for bacterial testing or SDB (pH 5.6) for fungal testing at the highest concentration to be tested. A serial dilution series was prepared at a dilution ratio of 1:1.3333 such that a one log range was covered in nine dilutions. Two-hundred microliters of the diluted antimicrobial agents were dispensed into four wells each of a sterile, 96-well, flat-bottom microplate (Nalge Nunc International). Four additional wells of the highest concentration were dispensed to serve as uninoculated high-level controls. Eight additional wells containing only broth medium were also prepared, four to serve as negative controls and four as positive controls. Three wells of each antimicrobial agent dilution were inoculated with one of the test strains in Table 7. The final well of each antimicrobial agent dilution was left uninoculated to serve as a control (and means of compensating) for any absorbance/turbidity due to the test compounds.
The individual antimicrobial agents listed in Table 8 were tested in combination with CHDM. The MIC values determined in the individual antimicrobial agent testing described above were used to establish a target MIC. In each experiment, MIC values for the individual antimicrobial agents and CHDM were determined in order to eliminate any variability due to comparison of data from different dates. Testing was done over a range of four concentrations separated by a factor of 1.3333 as described above. The four concentrations were the target MIC plus one dilution level higher and two dilution levels lower than the target. Combinations of antimicrobial agents and CHDM were made at 50% of the target MIC values and the higher and lower individual levels. Additionally, 50% level series were also tested with the antimicrobial agent or CHDM at one dilution level lower than the target level. The method of Kull et. al. (F. C. Kull et al., Applied Microbiology, 9, p 538-541 (1961)) was used to determine whether there was synergistic activity between CHDM and each antimicrobial agent for inhibition of each of the five microbes. MICs for the individually-tested CHDM and antimicrobial agent, as well as the concentration of CHDM and antimicrobial agent in the combination MIC were used to calculate a synergy index (SI) according to the equation: […]
where Qa and Qb are the minimum inhibitory concentrations for CHDM and a antimicrobial agent, respectively, when tested independently, and QA and QB are the concentrations of CHDM and a antimicrobial agent, respectively, in combination at an inhibitory concentration. Accordingly, synergy is defined as a SI less than one.
Experiments were also conducted using Corynebacterium xerosis, which is a bacterium known to cause body odor. […] The Corynebacterium xerosis bacterium used in this example was ATCC #373. The seed culture was grown in brain heart infusion medium. Assays were performed in brain heart infusion media in 96-well plates as described in Example 2. The brain heart infusion medium was at a pH of about 7.4. All growth was conducted at 37° C.

[2] = system: Candida albicans ATCC 10231; assay: MIC determination and synergy testing (Kull synergy index), microplate; conditions: for QB, MIC of PE alone: plates 116B, 240B, 252B; for QB, MIC of MP alone: plate 128B
Description: (§2) The test cultures are listed in Table 7 along with the incubation temperatures used for growth and minimum inhibitory concentration (MIC) testing. […] C. albicans was cultured in Sabouraud dextrose broth (SDB) for approximately 44-52 hours for preparation of inoculum. A. niger was cultured on Sabouraud dextrose agar (SDA) for 3-4 days until there was confluent growth and visible spore formation. Spores were harvested from the SDA plates by flooding the surface of the plate with 5-10 mL of phosphate-buffered saline (PBS) and gently spreading the liquid across the surface of the plate with a sterile T-shaped plastic spreader (Copan Diagnostics) until there was a well-mixed suspension of spores. The resulting spore suspension was collected using a serological pipette and stored at 2-8° C. until use.
(§3) Inoculum concentration was determined by dilution plating of the cultures or spore suspension. A serial dilution in PBS was made to 10^−8 for the bacterial cultures or 10^−5 for the fungal cultures. Fifty or 100 μL of the final dilution was spread on two Trypticase-soy agar (TSA) plates for bacteria or two SDA plates for fungi. After 24 to 48 hours plates were counted and the concentrations used in each experiment were calculated.
(§4) The antimicrobial agents tested for synergy along with the respective diluents and working stock solution concentrations are shown below. For determination of MIC ranges, individual antimicrobial agent stock solutions were added to sterile medium to yield the highest level test concentrations, and then serially diluted in the medium to prepare the range of test concentrations. For synergy testing individual test concentrations were prepared in sterile medium, and then blended to form the desired combinations.
as §1
(§5) Microplates were inoculated using the cultures or spore suspensions prepared as described above. The S. aureus cultures were used undiluted, while the E. coli and P. aeruginosa cultures were used either undiluted or after a 1:2 dilution in sterile TSB. The C. albicans cultures were used either undiluted or following a 2-fold concentration by centrifugation. One of two means of inoculation was used to deliver a final concentration of approximately 10^5 colony-forming units (CFU)/mL of C. albicans, 10^5 spores/mL of A. niger, or 10^6 CFU/mL of bacteria. The primary method used a stainless steel pin replicator (Nalge Nunc International) mounted on a hand-operated bench-top press (Schmidt Technology Corporation) fitted with a custom-built microplate holder to dispense one microliter of each inoculum from a “master” plate containing 50-100 μL of culture into the wells of the test plate. The pin replicator was sterilized before and between inoculations by immersing in ethanol and flaming. The alternative method of inoculation was by directly pipetting 20 μL of a 1:20 dilution of each culture or spore suspension into the appropriate wells of the test plates.

[3] = system: Aspergillus niger ATCC 16404; assay: as above; conditions: for QB, MIC of CG alone / QB, MIC of PE alone: A. niger; for QB, MIC of PE alone: plates 122C, 242C
Description: as §2, §3
The A. niger spore suspensions were concentrated to a level of 1-2×10^8 spores/mL by centrifugation and resuspension in a portion of the resulting supernatant.
as §4, §1
Microplates were inoculated using the cultures or spore suspensions prepared as described above. The S. aureus cultures were used undiluted, while the E. coli and P. aeruginosa cultures were used either undiluted or after a 1:2 dilution in sterile TSB. The C. albicans cultures were used either undiluted or following a 2-fold concentration by centrifugation. One of two means of inoculation was used to deliver a final concentration of approximately 10^5 colony-forming units (CFU)/mL of C. albicans, 10^5 spores/mL of A. niger, or 10^6 CFU/mL of bacteria. The primary method used a stainless steel pin replicator (Nalge Nunc International) mounted on a hand-operated bench-top press (Schmidt Technology Corporation) fitted with a custom-built microplate holder to dispense one microliter of each inoculum from a “master” plate containing 50-100 μL of culture into the wells of the test plate. The pin replicator was sterilized before and between inoculations by immersing in ethanol and flaming. […]

[4] = system: Pseudomonas aeruginosa ATCC 27853; assay: as above; conditions: for QB, MIC of CG alone: P. aeruginosa, plate 169E
Description: as §2, §3, §4, §1, §5

[5] = system: Staphylococcus aureus ATCC 25923; assay: as above; conditions: for QB, MIC of CG alone: plate 125D
Description: as §2, §3, §4, §1, §5

[6] = system: Escherichia coli ATCC 25922; assay: as above; conditions: E. coli; for QB, MIC of PE alone: plates 105A, 213A, 223A; for QB, MIC of MP alone: plate 108A
Description: as §2, §3, §4, §1, §5

[7] = C. albicans, day 2 of incubation
[8] = C. albicans, day 3 of incubation

Compound: CCCCC(CC)COCC(O)CO (centres unmarked) [EHG, ethylhexyl glycerin, reference compound]
% EHG ([1]; Day 2): 100.0% | QB/b (EHG) ([1]; Day 2): 0.107 | SI ([1]; Day 2): 1.00 | % EHG ([1]; Day 3): 100.0% | QB/b (EHG) ([1]; Day 3): 0.080 | SI ([1]; Day 3): 1.00

Compound: CCCCCCC(O)CO (centres unmarked) [Caprylyl glycol (CG)]
QB, MIC of CG alone ([2]; C. albicans, day 3 of incubation, plates 117B, 254B): 0.11 weight percent and 0.22 weight percent | QB, MIC of CG alone ([3]; day 2 of incubation, plates 123C, 217C): 0.17 weight percent and 0.10 weight percent | QB, MIC of CG alone ([3]; day 3 of incubation, plate 123C): 0.13 weight percent | QB, MIC of CG alone ([4]; day 1 of incubation): 0.23 weight percent | QB, MIC of CG alone ([4]; day 2 of incubation): 0.30 weight percent | QB, MIC of CG alone ([4]; day 3 of incubation): 0.30 weight percent | QB, MIC of CG alone ([5]; S. aureus, day 1 of incubation): 0.24 weight percent | QB, MIC of CG alone ([5]; S. aureus, day 2 of incubation): 0.32 weight percent

Compound: OCCOc1ccccc1 [Phenoxyethanol (PE)]
QB, MIC of PE alone [2, 7]: 0.22 weight percent and 0.27 weight percent and 0.23 weight percent | QB, MIC of PE alone [2, 8]: 0.22 weight percent and 0.27 weight percent and 0.30 weight percent | QB, MIC of PE alone ([3]; day 2 of incubation): 0.24 weight percent and 0.30 weight percent | QB, MIC of PE alone ([3]; day 3 of incubation): 0.24 weight percent and 0.40 weight percent | QB, MIC of PE alone ([6]; day 1 of incubation): 0.36 weight percent and 0.33 weight percent and 0.48 weight percent | QB, MIC of PE alone ([6]; day 2 of incubation): 0.48 weight percent and 0.36 weight percent and 0.43 weight percent | QB, MIC of PE alone ([5]; S. aureus, day 2 of incubation, plates 124D, 219D): 0.73 weight percent and 0.55 weight percent

Compound: CC1(C)C(=O)N(CO)C(=O)N1CO [DMDMH, DMDM Hydantoin, reference compound]
QB/b ([2]; DMDM hydantoin alone (QB) or in combination with CHDM (b), plate 241B, day 2): 0.22 | QB/b ([2]; DMDM hydantoin alone (QB) or in combination with CHDM (b), plate 241B, day 3): 0.22 | QB/b ([2]; DMDM hydantoin alone (QB) or in combination with CHDM (b), plate 244B, day 2): 0.36 | QB/b ([2]; DMDM hydantoin alone (QB) or in combination with CHDM (b), plate 244B, day 3): 0.36 | QB/b ([2]; DMDM hydantoin alone (QB) or in combination with CHDM (b), plate 263B, day 2): 0.45 | QB/b ([2]; DMDM hydantoin alone (QB) or in combination with CHDM (b), plate 263B, day 3): 0.80 | QB/b ([2]; DMDM hydantoin alone (QB) or in combination with CHDM (b), plate 264B, day 2): 0.34 | QB/b ([2]; DMDM hydantoin alone (QB) or in combination with CHDM (b), plate 264B, day 3): 0.60 | QB/b ([3]; DMDM hydantoin alone (QB) or in combination with CHDM (b), plate 196C, day 3): 0.14 | QB/b ([4]; DMDM hydantoin alone (QB) or in combination with CHDM (b), plate 150E, day 1): 0.049

QB, MIC of MP alone [2, 7]: 0.060 weight percent | QB, MIC of MP alone [2, 8]: 0.080 weight percent | QB, MIC of MP alone ([6]; day 1 of incubation): 0.112 weight percent | QB, MIC of MP alone ([6]; day 2 of incubation): 0.112 weight percent
Compound: COC(=O)c1ccc(O)cc1 [Methylparaben (MP)]

Compound: Cn1sccc1=O [MIT, Methylisothiazolinone, reference compound]
QB/b ([2]; MIT: MIC alone (QB) or conc. in combination with CHDM (b), plate 162B, day 3): 0.012 | QB/b ([2]; MIT: MIC alone (QB) or conc. in combination with CHDM (b), plate 200B, day 2): 0.021 | QB/b ([2]; MIT: MIC alone (QB) or conc. in combination with CHDM (b), plate 200B, day 3): 0.021 | QB/b ([3]; MIT: MIC alone (QB) or conc. in combination with CHDM (b), plate 193C, day 2): 0.04 | QB/b ([3]; MIT: MIC alone (QB) or conc. in combination with CHDM (b), plate 193C, day 3): 0.03 | QB/b ([3]; MIT: MIC alone (QB) or conc. in combination with CHDM (b), plate 214C, day 2): 0.04 | QB/b ([3]; MIT: MIC alone (QB) or conc. in combination with CHDM (b), plate 214C, day 3): 0.04 | Synergism of antimicrobial agent in combination with 1,4-CHDM for P. aeruginosa (in words; in the 12th table the cell names the organism and table number) ([4]; Kull synergy index, synergistic when at least two results SI<1): P. aeruginosa (26) | QB/b ([4]; MIT: MIC alone (QB) or conc. in combination with CHDM (b), plate 147E, day 1): 0.00053 | QB/b ([4]; MIT: MIC alone (QB) or conc. in combination with CHDM (b), plate 147E, day 2): 0.00093 | QB/b ([4]; MIT: MIC alone (QB) or conc. in combination with CHDM (b), plate 210E, day 1): 0.0006 | QB/b ([4]; MIT: MIC alone (QB) or conc. in combination with CHDM (b), plate 210E, day 2): 0.001 | QB/b ([4]; MIT: MIC alone (QB) or conc. in combination with CHDM (b), plate 249E, day 1): 0.00048 | QB/b ([4]; MIT: MIC alone (QB) or conc. in combination with CHDM (b), plate 249E, day 2): 0.0009 | QB/b ([5]; MIT: MIC alone (QB) or conc. in combination with CHDM (b), plate 137D, day 2): 0.002
